Test system: COVID-19 patients with severe pneumonia
Test: Phase 2 clinical study of Reparixin plus standard of care in COVID-19 patients with severe pneumonia
Format: in vivo, human
Conditions: for Composite endpoint, first occurrence (% patients) / Composite endpoint, first occurrence (n patients): oral tablets 1200 mg TID plus standard of care
Description: A phase 2 clinical study has been conducted to assess efficacy and safety of Reparixin in COVID-19 patients with severe pneumonia.
The patients participating to the trial satisfied the following inclusion criteria: • a) at least one of the following: • respiratory distress, RR≥30 breaths/min without oxygen; • Partial arterial oxygen pressure (PaO2)/Fraction of inspiration O2 (FiO2)>100<300 mmHg (1 mmHg=0.133 kPa). • b) chest imaging confirming lung involvement and inflammation. • c) inflammatory status as documented by at least one of the following: Lactate dehydrogenase (LDH)>normal range, C-reactive protein (CRP)≥100 mg/L or IL-6≥40 pg/mL, serum ferritin ≥900 ng/mL, XDP >20 mcg/mL.
Fourteen patients received the standard of care treatment only (Control group).
Thirty-two patients received Reparixin oral tablets 1200 mg TID in addition to the standard of care treatment (Reparixin group) for a maximum of 21 days.
In both groups, where necessary due to the presence of concomitant pathologies (diabetes, hypertension, cancer etc. . . ), the patients also continued to receive specific treatments for these.
The first occurrence of the composite primary endpoint (at least one of the following events: death, supplemental oxygen requirement, invasive mechanical ventilation use, admission to ICU, and use of a rescue medication for any reason) was evaluated in all the patients and the data obtained are shown in Table 2 below.
The data collected in the clinical trial were analyzed by means of the Kaplan-Meier methodology and the log-rank test was used to test for differences between treatment groups. The Kaplan-Meier method is a well-established method to analyse the patterns of events over time to estimate the probability of being free of event. The form of the estimated “survival curves” is a step function, with steps down occurring at those time points where there are events. As patients have events or are censored (patients who exit the analyses for other reasons than events) the number of patients remaining evaluable in the trial in each of the treatment groups is diminishing. The probabilities of being free of event are, as a consequence, estimated from fewer and fewer patients as time progresses. To give information in relation to this, the number of patients at risk at various time points are provided: these are the numbers of patients still at risk of having their first occurrence of the composite endpoint.

[1] = Reparixin plus standard of care vs standard of care only

## CC(C)Cc1ccc([C@@H](C)C(=O)NS(C)(=O)=O)cc1 [Reparixin, R-(-)-2-(4-isobutylphenyl)propionyl methansulfonamide]
Day 1, 32 evaluable patients
  Composite endpoint, first occurrence (% patients): 9.4%
Day 1, 32 evaluable patients, composite = death, supplemental oxygen requirement, invasive mechanical ventilation use, admission to ICU, or rescue medication
  Composite endpoint, first occurrence (n patients): 3
Day 2, 27 evaluable patients
  Composite endpoint, first occurrence (% patients): 7.4%
  Composite endpoint, first occurrence (n patients): 2
Reparixin group compared to the Control group
  Time of recovery of patients: significantly reduced
Reparixin group vs Control group (standard of care only), log-rank test p-value 0.0031
  Freedom from composite event over time (Kaplan-Meier, FIG. 1): statistically significant higher freedom from event
Reparixin group vs Control group, shown by incidence of the composite endpoints
  Progression to more severe respiratory disease: prevents the progression to more severe respiratory disease
[1]
  Days of oxygen use: fewer days of oxygen use
  Duration of mechanical ventilation: shorter subsequent duration of mechanical ventilation
Patients in the Reparixin group
  Respiratory function: improved respiratory function
